Experimental data as given in patent US12061143B2, “Methods for rapid determinations of antibiotic susceptibility phenotypes” (priority 2018, dated 2024).

Key:
[1] = system: Lab-strain E. coli (ATCC); experiment: FAST with low bacterial counts (500 counts by flow cytometry); format: cell-based; conditions: each antibiotic at MIC, ¼ MIC and 1/16 MIC, bars beyond the 99% confidence line
Description: FIG. 14. Bactericidal Antibiotic-induced changes for low counts of E. coli. Lab-strain E. coli (ATCC) ASTs performed with 500 counts by flow cytometry with gentamicin (Gen), penicillin G (PenG), and tetracycline (Tet) each at MIC, ¼ MIC and 1/16 MIC. This strain is seen to be sensitive to all three antibiotics, as the bars extend beyond the 99% confidence line.
While both morphology and growth inhibition occur upon exposure to antibiotics near the minimum inhibitory concentration, standard ASTs are based on growth inhibition alone. The presence of bacteria is clearly indicated by the presence of a particular scattering peak in the multidimensional histogram. This is much more sensitive and less affected by background than is shifts in a peak resulting from morphological changes upon antibiotic exposure. […] For even a few hundred counts, the presence of a bacterial population can be readily assessed with flow cytometry, but error bars and statistical distances must be properly determined relative to no-antibiotic controls. When too few counts for triplicate runs exist, control and each antibiotic exposure histograms are treated as probability distributions that are representative of the true mother distribution for each condition. Each histogram is binned (either adaptively with probability binning or using regular bins) and the distribution of data within each bin is determined. […]

[2] = system: 10% human blood samples without bacteria inoculation; experiment: Antibiotic-treated 10% human blood only control (no bacteria), flow cytometry; format: cell-based; conditions: 10% human blood without bacteria, around the resistance breakpoints of Enterobacteriaceae
Protocol: FIGS. 6A-6D. Antibiotic-treated 10% human blood only results. Cytometric data with (FIG. 6A) Ampicillin (FIG. 6B) Tetracycline (FIG. 6C) Gentamicin. The greyscale plots are the no-antibiotic controls and the black contour plots are the antibiotic-treated data with the antibiotic concentration indicated at each plot. (FIG. 6D) PB-sQF results for FIGS. 6A-6C). […] For each antibiotic, the resistant breakpoints of Enterobacteriaceae are 16 μg/mL for tetracycline and gentamicin and 32 μg/mL for ampicillin.
This confirms that the gentamicin sensitivity of Mu14S observed after blood culture^(1) can also be observed on much shorter timescales with FAST. Overnight plating confirms that initial Mu14S counts were 3, 2, 5 and CFU/mL for tetracycline, gentamicin and ampicillin data after 10-fold dilution of the blood/bacteria mixture, corresponding to FAST being performed on whole blood samples containing ˜30, ˜20 and ˜50 CFU/mL. […] Thus, diluting bacterimic blood specimens 1:9 (v:v) directly into saponin-containing growth medium provides a path to ASTs within 8 hours from initial blood draw, with excellent results matching independent (36-44 hrs) MIC determinations from pure, overnight cultures (˜10^8 CFU/mL) that could only be initiated after (˜24 hr) positive blood culture.

Gentamicin
PB-sQF AST susceptibility at low counts [1]: sensitive | scattered light histograms change [2]: do not significantly change
